Here are results for 1 substance from patent US20070077583A1, “Alpha enolase-directed diagnostics and therapeutics for cancer and chemotherapeutic drug resistance” (Aurelium BioPharma, Inc., priority 2005, published 2007).

One data set deals with H460 cells. As to the kind of experiment: MTT cytotoxicity assay, H460 cells transfected with α-enolase siRNA. In kind it is cell-based, human. Here is the method:
To establish the effectiveness of α-enolase silencing on other cancer cell types, H460 non-small cell lung cancer cells were challenged with a chemotherapeutic drug, MTT cytotoxicity assays were carried out and survival curves plotted as shown in FIG. 17.

Another data set has as its system MCF-7 cells. As to the kind of experiment: Clonogenic assay, MCF-7 cells. In kind it is cell-based, human. Particulars: adriamycin-resistant MCF-7 cells, without drug. Here is the method:
Utilizing a clonogenic assay generated additional information concerning cell viability after drug-resistant cells were exposed to siRNA and chemotherapeutics. […] Taxol or Vincristine was added at IC10 or IC50 concentrations determined from MTT experiments for MCF-7 cells. […] The cells were further incubated for an additional 7 days. At the end of the incubation, the cells were stained with addition of a 0.5% Methylene Blue solution in 50% ethanol for 15 min. at RT. The staining solution was then removed and plates were dried overnight. The plates were scanned and the stained colonies were solubilized in 0.1% SDS. The absorbance of the resulting solution was determined by spectrophotometry at 660 nm.

Data set [1] concerns A549 cells. Description: Cell adhesion assay on collagen-coated plates. It is filed as cell-based, human. Particulars: A549 cells vs normal α-enolase levels. Here is the method:
Cell adhesion assays were performed using an MTT-based cell assay, as described in FIGS. 8C and 8D. […] The attachment of cells to the surface of the well was counted and a proportion of cells that attached to the surface during the experimental period was determined.

Data set [2] has as its system Detroit skin, Hfl fetal lung, and MRC-5 fetal lung fibroblast cell lines. As to the kind of experiment: MTT survival of normal fibroblast cells after α-enolase silencing. It is filed as cell-based. Particulars: relative to mock or control siRNA. On the procedure:
Detroit skin, Hfl fetal lung, and MRC-5 fetal lung fibroblast cell lines were treated with α-enolase-targeted siRNA as described in Example 5.

In data set [3] the test system is A549 cells. Description: MTT cytotoxicity assay, A549 cells transfected with α-enolase siRNA. The note with it: A549 cells. (In general: Tetrazolium assays rely on reduction of a dye to a coloured formazan, in cell work by metabolically active cells.)
Description: Small interfering RNA transfected cells were seeded in triplicate into 96-well plates at 5×10^3 cells/well 48 hrs post-transfection. The cells were incubated for an additional 16-24 hrs before they were exposed to increasing concentrations of cytotoxic drugs. […] Appropriate dilutions were made in the respective media for each cell line. Following addition of drugs, incubation was continued for an additional 72 hrs. Twenty-five ml of MTT dye (5 mg/ml) were added into each well and the plate was further incubated at 37° C. for 4 hrs. The dye was solubilized with 10% Triton X-100, 0.01 N HCl and further incubated at 37° C. in the dark for 30 min. Cell viability was determined by measure of absorption at 570 nm in a Wallac multiwell plate reader (PerkinElmer, Inc., Boston, Mass.). The averages of triplicate wells were plotted using the Prism software (GraphPad Software, Inc., San Diego, Calif.).
To investigate if α-enolase is broadly involved in mediating drug resistance to microtubule targeting agents, non-small cell lung cancer cell lines A549 and H460, respectively, were transfected with α-enolase siRNA and enolase expression and viability were assessed.

Regarding “α-enolase siRNA: siRNA duplex targeting human α-enolase mRNA; sense 5′-GGCUGUUGAGCACAUCAAUtt-3′ (SEQ ID NO: 1), antisense SEQ ID NO: 2; Ambion (antisense AUUGAUGUGCUCAACAGCC; bought from Ambion, sense has tt overhang, further chemistry not given here)”, the “cell viability after siRNA alone” value with H460 cells is listed as “less viable”; with A549 cells [3], “decreased the viability”. Besides, the “viability less than that of siRNA untreated cells” value in the data set with MCF-7 cells was 65%. Moreover, in the data set on A549 cells [1], the “increase of cell adhesion to collagen-coated plates” value was determined as 40%. Also, the “survival of normal fibroblast cells” value in data set [2] is “no effect on survival”.
